Consider 22 compounds from patent US11548868B2, “Heterocyclic compounds, compositions comprising heterocyclic compound, and methods of use thereof” (JS INNOPHARM (SHANGHAI) LTD, priority 2017, dated 2023).

In one test the target is Recombinant human TDO2 (Homo sapiens, UniProt P48775). The test is described as follows: TDO2 Enzymatic Assay. To be noted: recombinant human TDO2 200 nM, L-tryptophan 300 μM, 40 min room temperature, N′-formylkynurenine absorbance 321 nm; read-out: TDO2 bichemical activity*. The format is biochemical. The protocol:
(§1) The TDO2 biochemical inhibitory activity is determined by measuring the decrease in N′-formylkynurenine from tryptophan catalyzed by TDO2 enzyme. Recombinant human TDO2 (200 nM), L-tryptophan (300 μM), L-ascorbic acid (20 mM), methylene Blue (20 μM), catalase (0.2 mg/mL), and serial dilutions of the test compounds in a total volume of […] containing DMSO (with final DMSO concentration of 0.5%) and a pH 7.5 buffer containing potassium phosphate (50 mM) were added into each well in a 96-well plate. After incubation at room temperature for 40 min, the absorbance of the reaction mixture was read at 321 nm to measure the formation of N′-formylkynurenine by SpectraMax microplate reader. Percent inhibition of the test compounds was determined by measuring the decrease in N′-formylkynurenine as compared to the control of DMSO vehicle, which was calculated by formula of (WC-WT)/WC, where WC is the mean absorbance of the control well minus blank well; WT is the mean absorbance of the test well minus the blank well. Data was analyzed by GraphPad Prism 5 and the IC50 values were obtained by non-linear regression.
The IC50 values of TDO2 biochemical activity for the examples disclosed herein are listed in Table 2, A: ≤0.1 μM; B: >0.10 μM and ≤0.5 μM; C: >0.5 μM and ≤1.0 μM; and D: >1.0 μM.

A further test deals with Recombinant human IDO1 (Homo sapiens, UniProt P14902). The experiment in a line: IDO1 Enzymatic Assay. To be noted: recombinant human IDO1 40 nM, L-tryptophan 100 μM, 40 min room temperature, N′-formylkynurenine absorbance 321 nm; read-out: IDO1 biochemical activity*. The protocol:
as §1, with “IDO1” for “TDO2”, “IDO1 (40” for “TDO2 (200”, “(100” for “(300”, “(WC−WT)/WC,” for “(WC-WT)/WC,”
The IC50 values of IDO1 biochemical activity for the examples disclosed herein are listed in Table 2, A: ≤0.1 μM; B: >0.10 μM and ≤0.5 μM; C: >0.5 μM and ≤1.0 μM; and D: >1.0 μM.

Test [1] has as its target T1, TDO2 in A172 cancer cells (Homo sapiens, UniProt P48775).
T1 construct: endogenous in cells; host or cells: A172 cancer cells
The experiment in a line: TDO2 Cellular Assay (kynurenine production in A172 cancer cells). The test is classed as cell-based. The conditions noted are these: L-Trp 1 mM, 24 hours incubation, kynurenine at 490 nm. Put shortly:
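Kynurenine output of A172 cells was read colorimetrically at 490 nm (Ehrlich reagent after TCA hydrolysis at 50 °C). Cells had 1 mM L-Trp plus compound at 0–25 μM in 0.25% DMSO for 24 h; IC50 values were fitted non-linearly from percent inhibition relative to vehicle.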

Test [2] concerns the target T2, IDO1 in Hela cancer cells (Homo sapiens, UniProt P14902).
T2 construct: endogenous in cells; host or cells: Hela cancer cells stimulated with human IFN-γ
The test is described as follows: IDO1 Cellular Assay (kynurenine production in IFN-γ stimulated Hela cancer cells). To be noted: human IFN-γ 50 ng/mL, 48 hours incubation, kynurenine at 490 nm. The test is classed as cell-based. Put shortly:
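HeLa cells stimulated with 50 ng/mL IFN-γ (final) and treated 48 h with compound (0–25 μM final, 0.25% DMSO). Supernatant kynurenine measured after TCA hydrolysis and p-dimethylaminobenzaldehyde reaction at 490 nm; inhibition vs DMSO control, IC50 by non-linear regression.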

SMILES strings stand for the structures.

T1 sequence (P48775 whole entry): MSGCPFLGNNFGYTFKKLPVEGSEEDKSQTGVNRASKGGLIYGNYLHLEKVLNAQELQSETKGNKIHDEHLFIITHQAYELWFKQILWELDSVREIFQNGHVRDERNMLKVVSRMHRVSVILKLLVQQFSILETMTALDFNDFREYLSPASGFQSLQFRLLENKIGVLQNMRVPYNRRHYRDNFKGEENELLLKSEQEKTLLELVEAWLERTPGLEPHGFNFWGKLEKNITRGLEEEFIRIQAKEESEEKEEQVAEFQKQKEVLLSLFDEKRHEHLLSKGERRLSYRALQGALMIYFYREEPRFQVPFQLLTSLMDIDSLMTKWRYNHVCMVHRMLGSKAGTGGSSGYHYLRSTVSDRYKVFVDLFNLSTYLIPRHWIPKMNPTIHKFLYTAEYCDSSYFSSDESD
T2 sequence (P14902 whole entry): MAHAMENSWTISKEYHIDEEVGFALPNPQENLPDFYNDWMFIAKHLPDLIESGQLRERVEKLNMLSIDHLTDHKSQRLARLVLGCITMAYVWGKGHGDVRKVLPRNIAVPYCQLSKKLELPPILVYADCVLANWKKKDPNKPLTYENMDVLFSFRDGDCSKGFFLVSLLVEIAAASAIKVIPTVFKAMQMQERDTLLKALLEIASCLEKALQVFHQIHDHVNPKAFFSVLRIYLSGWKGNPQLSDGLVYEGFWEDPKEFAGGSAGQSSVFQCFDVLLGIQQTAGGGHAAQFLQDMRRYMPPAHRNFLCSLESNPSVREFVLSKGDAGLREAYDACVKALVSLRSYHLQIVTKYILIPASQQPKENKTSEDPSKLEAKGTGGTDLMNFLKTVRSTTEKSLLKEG
Recombinant human IDO1, sequence (P14902 whole entry): as above
Recombinant human TDO2, sequence (P48775 whole entry): as the sequence (P48775 whole entry) above

Turning to `CC1(C)C2CN(c3cc(Cl)cc4[nH]ncc34)CC2CN1S(C)(=O)=O` (single isomer, unassigned) [Example 1a], the IC50 at Recombinant human TDO2 is ≤ 0.1 µM; on Recombinant human IDO1, > 1 µM; in test [1] it was 0.5 to 1 µM.

On to `CS(=O)(=O)N1C[C@H]2CN(c3cc(Cl)cc4[nH]ncc34)C[C@H]2C1` [Example 12, 6-chloro-4-((3aR,6aS)-5-(methylsulfonyl)hexahydropyrrolo[3,4-c]pyrrol-2(1H)-yl)-1H-indazole], for which the IC50 is > 1 µM at Recombinant human IDO1 and ≤ 0.5 µM in test [1].

`CS(=O)(=O)N1CCCC2CN(c3cc(Cl)cc4[nH]ncc34)CC21` (stereo not shown) [Example 13, 6-chloro-4-(1-(methylsulfonyl)hexahydro-1H-pyrrolo[3,4-b]pyridin-6(2H)-yl)-1H-indazole]: the values for the IC50 (on Recombinant human IDO1; in test [1]) were > 1 µM and 0.5 to 1 µM, respectively.

With `CC(=O)N1C[C@@H]2CN(c3cc(Cl)cc4[nH]ncc34)C[C@@H]2C1` [Example 14, 1-((3aR,6aS)-5-(6-chloro-1H-indazol-4-yl)hexahydropyrrolo[3,4-c]pyrrol-2(1H)-yl)ethanone], the figures for the IC50 (on Recombinant human IDO1; in test [1]) were > 1 µM and 0.5 to 1 µM, respectively.

For the compound `CC(=O)N1CCCC2CN(c3cc(Cl)cc4[nH]ncc34)CC21` (stereo not shown) [Example 15, 1-(6-(6-chloro-1H-indazol-4-yl)octahydro-1H-pyrrolo[3,4-b]pyridin-1-yl)ethanone], the results for the IC50 (at Recombinant human IDO1; in test [1]) were > 1 µM and ≤ 0.5 µM, respectively.

In the case of `CS(=O)(=O)NC1[C@H]2CN(c3cc(Cl)cc4[nH]ncc34)C[C@@H]12` (stereo partly drawn) [Example 16, N-((1R,5S)-3-(6-chloro-1H-indazol-4-yl)-3-azabicyclo[3.1.0]hexan-6-yl)methanesulfonamide], the values for the IC50 (at Recombinant human IDO1; in test [1]) were > 1 µM and 1 to 5 µM, respectively.

As for `CC(=O)NC1[C@H]2CN(c3cc(Cl)cc4[nH]ncc34)C[C@@H]12` (stereo partly drawn) [Example 17, N-((1R,5S)-3-(6-chloro-1H-indazol-4-yl)-3-azabicyclo[3.1.0]hexan-6-yl)acetamide], the IC50 at Recombinant human IDO1 was > 1 µM; in test [1], 1 to 5 µM.

Take `CC(=O)N1CC2CN(c3cc(Cl)cc4[nH]ncc34)CC2C1(C)C` (stereo not shown) [Example 18, 1-(5-(6-chloro-1H-indazol-4-yl)-1,1-dimethylhexahydropyrrolo[3,4-c]pyrrol-2(1H)-yl)ethanone]: the IC50 at Recombinant human TDO2 was ≤ 0.1 µM; on Recombinant human IDO1, 0.5 to 1 µM; in test [1], ≤ 0.5 µM.

For `CC(=O)N1CCC2CN(c3cc(Cl)cc4[nH]ncc34)CC21` (stereo not shown) [Example 19, 1-(5-(6-chloro-1H-indazol-4-yl)hexahydropyrrolo[3,4-b]pyrrol-1(2H)-yl)ethanone], the results for the IC50 (at Recombinant human IDO1; in test [1]) were > 1 µM and 0.5 to 1 µM, respectively.

For `Cn1ncc2c(N3CC4CCN(S(C)(=O)=O)C4C3)cc(Cl)cc21` (stereo not shown) [Example 20, 6-chloro-1-methyl-4-(1-(methylsulfonyl)hexahydropyrrolo[3,4-b]pyrrol-5(1H)-yl)-1H-indazole], the results for the IC50 (on Recombinant human IDO1; in test [1]) were > 1 µM and > 5 µM, respectively.

Regarding `CC(=O)N[C@@H]1[C@@H]2CN(c3cc(Cl)cc4[nH]ncc34)C[C@@H]21` [Example 21, N-((1R,5S,6r)-3-(6-chloro-1H-indazol-4-yl)-3-azabicyclo[3.1.0]hexan-6-yl)acetamide], the IC50 at Recombinant human IDO1 is > 1 µM; in test [1] it was 1 to 5 µM.

Take `CS(=O)(=O)N1CCC2CN(c3cc(Cl)cc4[nH]ncc34)CC21` (stereo not shown) [Example 23, 6-chloro-4-(1-(methylsulfonyl)hexahydropyrrolo[3,4-b]pyrrol-5(1H)-yl)-1H-indazole]: the values for the IC50 (at Recombinant human IDO1; in test [1]) were > 1 µM and 0.5 to 1 µM, respectively.

Consider `CS(=O)(=O)N[C@@H]1[C@@H]2CN(c3cc(Cl)cc4[nH]ncc34)C[C@@H]21` [Example 24, N-((1R,5S,6r)-3-(6-chloro-1H-indazol-4-yl)-3-azabicyclo[3.1.0]hexan-6-yl)methanesulfonamide], for which the results for the IC50 (at Recombinant human IDO1; in test [1]) were > 1 µM and 1 to 5 µM, respectively.

In the case of `CC1(C)C2CN(c3cc(Cl)cc4[nH]ncc34)CC2CN1C(=O)c1ccc(C#N)cc1` (stereo not shown) [Example 27, 4-(5-(6-chloro-1H-indazol-4-yl)-1,1-dimethyloctahydropyrrolo[3,4-c]pyrrole-2-carbonyl)benzonitrile], the IC50 on Recombinant human IDO1 is > 1 µM; in test [1], 0.5 to 1 µM.

As for `CC1(C)C2CN(c3cc(Cl)cc4[nH]ncc34)CC2CN1S(=O)(=O)C1CC1` (stereo not shown) [Example 28, 6-chloro-4-(5-(cyclopropylsulfonyl)-4,4-dimethylhexahydropyrrolo[3,4-c]pyrrol-2(1H)-yl)-1H-indazole], the IC50 on Recombinant human IDO1 was > 1 µM; in test [1], ≤ 0.5 µM.

In the case of `O=C(N[C@H]1[C@@H]2C[C@@](O)(c3cc(Cl)cc4[nH]ncc34)C[C@@H]21)c1ccc(F)c(Br)c1` [Example 176, 3-bromo-N-((1R,3r,5S,6r)-3-(6-chloro-1H-indazol-4-yl)-3-hydroxybicyclo[3.1.0]hexan-6-yl)-4-fluorobenzamide], the IC50 in test [1] and in test [2] was ≤ 0.5 µM throughout.

With `O=C(N[C@H]1[C@@H]2C[C@@](O)(c3cc(Cl)cc4[nH]ncc34)C[C@@H]21)c1ccnc2ccc(F)cc12` [Example 177, N-((1R,3r,5S,6r)-3-(6-chloro-1H-indazol-4-yl)-3-hydroxybicyclo[3.1.0]hexan-6-yl)-6-fluoroquinoline-4-carboxamide], the IC50 was ≤ 0.5 µM in test [1] and 0.5 to 1 µM in test [2].

Consider `O=C(N[C@H]1[C@@H]2C[C@@](O)(c3cc(Cl)cc4[nH]ncc34)C[C@@H]21)c1cccc(C2CC2)c1` [Example 178, N-((1R,3r,5S,6r)-3-(6-chloro-1H-indazol-4-yl)-3-hydroxybicyclo[3.1.0]hexan-6-yl)-3-cyclopropylbenzamide], for which the IC50 in test [1] and in test [2] was ≤ 0.5 µM throughout.

`O=C(N[C@H]1[C@@H]2C[C@@](O)(c3cc(Cl)cc4[nH]ncc34)C[C@@H]21)c1cncc(Cl)c1` [Example 179, 5-chloro-N-((1R,3r,5S,6r)-3-(6-chloro-1H-indazol-4-yl)-3-hydroxybicyclo[3.1.0]hexan-6-yl)nicotinamide]: the IC50 in test [1] and in test [2] was ≤ 0.5 µM in each case.

In the case of `O=C(N[C@H]1[C@@H]2C[C@@](O)(c3cc(Cl)cc4[nH]ncc34)C[C@@H]21)c1ccc(F)c(OC(F)(F)F)c1` [Example 180, N-((1R,3r,5S,6r)-3-(6-chloro-1H-indazol-4-yl)-3-hydroxybicyclo[3.1.0]hexan-6-yl)-4-fluoro-3-(trifluoromethoxy)benzamide], the IC50 in test [1] and in test [2] was ≤ 0.5 µM throughout.

For the compound `N#Cc1cncc(C(=O)N[C@H]2[C@@H]3C[C@@](O)(c4cc(Cl)cc5[nH]ncc45)C[C@@H]32)c1` [Example 181, N-((1R,3r,5S,6r)-3-(6-chloro-1H-indazol-4-yl)-3-hydroxybicyclo[3.1.0]hexan-6-yl)-5-cyanonicotinamide], the IC50 in test [1] and in test [2] was ≤ 0.5 µM each time.

`O=C(N[C@H]1[C@@H]2C[C@@](O)(c3cc(Cl)cc4[nH]ncc34)C[C@@H]21)c1cncc(C(F)(F)F)c1` [Example 182, N-((1R,3r,5S,6r)-3-(6-chloro-1H-indazol-4-yl)-3-hydroxybicyclo[3.1.0]hexan-6-yl)-5-(trifluoromethyl)nicotinamide]: the IC50 in test [1] and in test [2] was ≤ 0.5 µM throughout.
